Measurements taken from patent US7576076B2, “Modified pyrimidine glucocorticoid receptor modulators” (Corcept Therapeutics, Inc., priority 2004, dated 2009).

The molecules below were run against T1, endogenous glucocorticoid receptors in SW1353/MMTV-5 cells (Homo sapiens, UniProt P04150) (assay: GR functional assay using SW1353/MMTV-5 cells (luciferase reporter)). Settings: not given.
T1 construct: contains endogenous glucocorticoid receptors; endogenous in cells; host or cells: SW1353/MMTV-5 (human chondrosarcoma, stably transfected with the pMAMneo-Luc reporter only)
T1 sequence (P04150 1-777): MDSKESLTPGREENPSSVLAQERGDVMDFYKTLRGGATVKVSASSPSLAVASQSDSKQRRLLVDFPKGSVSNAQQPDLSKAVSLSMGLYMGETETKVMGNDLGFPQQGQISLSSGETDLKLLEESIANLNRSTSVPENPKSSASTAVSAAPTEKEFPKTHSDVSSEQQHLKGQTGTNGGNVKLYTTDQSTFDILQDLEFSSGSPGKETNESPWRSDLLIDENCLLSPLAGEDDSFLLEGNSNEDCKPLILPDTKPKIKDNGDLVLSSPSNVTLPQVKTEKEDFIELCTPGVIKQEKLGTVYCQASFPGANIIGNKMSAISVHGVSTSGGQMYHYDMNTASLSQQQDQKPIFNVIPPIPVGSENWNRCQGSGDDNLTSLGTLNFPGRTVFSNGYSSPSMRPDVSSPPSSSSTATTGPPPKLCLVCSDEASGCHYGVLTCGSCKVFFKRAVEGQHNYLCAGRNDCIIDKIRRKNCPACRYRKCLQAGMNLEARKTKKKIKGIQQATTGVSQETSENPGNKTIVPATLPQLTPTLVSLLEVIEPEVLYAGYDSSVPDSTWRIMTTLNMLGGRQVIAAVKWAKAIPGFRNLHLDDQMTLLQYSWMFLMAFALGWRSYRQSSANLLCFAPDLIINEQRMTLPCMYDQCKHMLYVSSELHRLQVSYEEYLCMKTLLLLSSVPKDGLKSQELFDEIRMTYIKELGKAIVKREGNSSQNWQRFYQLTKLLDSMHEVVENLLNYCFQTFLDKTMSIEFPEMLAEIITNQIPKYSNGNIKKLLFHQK
Type: cell-based
Procedure: SW1353/MMTV-5 is an adherent human chondrosarcoma cell line that contains endogenous glucocorticoid receptors. It was transfected with a plasmid (pMAMneo-Luc) encoding firefly luciferase located behind a glucocorticoid-responsive element (GRE) derived from a viral promoter (long terminal repeat of mouse mammary tumor virus). A stable cell line SW1353/MMTV-5 was selected with geneticin, which was required to maintain this plasmid.
SW1353/MMTV-5 cells were distributed in 96-well plates and incubated in medium (without geneticin) for 24 hrs (in the absence of CO2).

`O=c1[nH]c(N2CCC(c3ccccc3)CC2)c(Cc2ccccc2)c(=O)[nH]1` [Compound 31] and `O=c1[nH]c(N2CCC(c3ccccc3)CC2)c(Cc2ccccc2Cl)c(=O)[nH]1` [Compound 33] fall in the same range of Ki: 10 to 100 nM for the first, 10 to 100 nM for the second.

First: Cn1c(=O)[nH]c(N2CCC(c3ccccc3)CC2)c(Cc2ccccc2Cl)c1=O [Compound 34]
Second: O=c1[nH]c(N2CCC(c3ccccc3)CC2)c(Cc2cccc(Cl)c2)c(=O)[nH]1 [Compound 35]
The Ki of the first is higher: over 100 nM for the first, 10 to 100 nM for the second. The second binds more tightly here.

First: O=c1[nH]c(N2CCC(c3ccccc3)CC2)c(Cc2ccc(Cl)cc2)c(=O)[nH]1 [Compound 36]
Second: O=c1[nH]c(N2CCC(c3ccccc3)CC2)c(Cc2cccc(Br)c2)c(=O)[nH]1 [Compound 38]
The Ki of the first is higher: over 100 nM for the first, 10 to 100 nM for the second.

Each molecule was assayed against T2, human recombinant glucocorticoid receptor (Homo sapiens, UniProt P04150) (assay: Glucocorticoid receptor binding displacement assay with 3H-dexamethasone). Settings: Ki.
T2 construct: This GR was a full-length steroid hormone receptor; host or cells: recombinant baculovirus-infected insect cells
T2 sequence (P04150 1-777): T1 sequence (P04150 1-777)
Procedure: The source of the receptor was recombinant baculovirus-infected insect cells. This GR was a full-length steroid hormone receptor likely to be associated with heat-shock and other endogenous proteins.
For the Primary Screen, test compounds were tested at 1 μM in duplicate. These compounds were diluted from 10 mM stock in 100% DMSO. After dilution to 100 μM, 5 μl were added to 245 μl assay buffer to obtained 2 μM compound and 2% DMSO.
For the IC50 determinations, test compounds were tested at 6 concentrations in duplicate (concentration range depends on % inhibition binding that was obtained in the Primary Screen,). Test compounds were diluted from 10 mM stock in 100% DMSO. The tested solutions were prepared at 2×final assay concentration in 2% DMSO/assay buffer.
All reagents and the assay plate were kept on ice during the addition of reagents. […] After the additions, the incubation mixture was mixed and incubated for 2.5 hrs at 4° C.
After 2.5 hrs incubation, unbound counts were removed with dextran coated charcoal (DCC) as follows: 25 μl of DCC solution (10% DCC in assay buffer) was added to all wells and mixed (total volume 225 μl). The plate was centrifuged at 4000 rpm for 10 minutes at 4° C. 75 μl of the supernatants (i.e. ⅓ of total volume) was carefully pipetted into an optiplate. 200 μl of scintillation cocktail were added (Microscint-40, Packard Bioscience. B.V.). The plate was vigorously shaken for approx. 10 minutes and counted on Topcount.
The IC50 values were converted to Ki (the inhibition constant) using the Cheng-Prusoff equation.
Reagents: Assay buffer: 10 mM potassium phosphate buffer pH 7.6 containing 5 mM DTT, 10 mM sodium molybdate, 100 μM EDTA and 0.1% BSA.

With `Cn1c(=O)[nH]c(N2CCC(Oc3ccccc3)CC2)c(Cc2ccccc2)c1=O` [Compound 37] the Ki was 10 to 100 nM.

Same assay, conditions: displacement of 2.5 nM 3H-dexamethasone; IC50 converted to Ki by Cheng-Prusoff; read-out: Ki

`Cn1c(=O)[nH]c(N2CCC(O)CC2)c(Cc2cccc(C(F)(F)F)c2)c1=O` [Compound 1] and `CCOC(=O)N1CCN(c2[nH]c(=O)n(C)c(=O)c2Cc2cccc(C(F)(F)F)c2)CC1` [Compound 2] cannot be ordered by Ki: over 100 nM for the first, over 100 nM for the second.

Compared with `Cn1c(=O)[nH]c(N2CCC(Cc3ccccc3)CC2)c(Cc2ccccc2Br)c1=O` [Compound 3], `Cn1c(=O)[nH]c(N2CCC(Cc3ccccc3)CC2)c(Cc2ccccc2)c1=O` [Compound 5] is lower in Ki: over 100 nM for the first, 10 to 100 nM for the second. The second binds more tightly here.

`Cn1c(=O)[nH]c(N2CCC(Cc3ccccc3)CC2)c(Cc2ccccc2Br)c1=O` [Compound 4] and `Cn1c(=O)[nH]c(N2CCC(Cc3ccccc3)CC2)c(Cc2ccc(Br)cc2)c1=O` [Compound 7] fall in the same range of Ki: 10 to 100 nM for the first, 10 to 100 nM for the second.

First: Cn1c(=O)[nH]c(N2CCC(Cc3ccccc3)CC2)c(Cc2ccc(F)cc2F)c1=O [Compound 6]
Second: Cn1c(=O)[nH]c(N2CCC(Cc3ccccc3)CC2)c(Cc2ccc(F)cc2Cl)c1=O [Compound 8]
The Ki of the first is lower: 10 to 100 nM for the first, over 100 nM for the second.

Compared with `Cn1c(=O)[nH]c(N2CCC(Cc3ccccc3)CC2)c(Cc2ccc(C#N)cc2)c1=O` [Compound 9], `Cc1ccc(Cc2c(N3CCC(Cc4ccccc4)CC3)[nH]c(=O)n(C)c2=O)cc1` [Compound 10] is lower in Ki: over 100 nM for the first, 10 to 100 nM for the second.

`CC(C)=CCc1c(N2CCC(Cc3ccccc3)CC2)[nH]c(=O)n(C)c1=O` [Compound 11] and `Cn1c(=O)[nH]c(N2CCC(Cc3ccccc3)CC2)c(Cc2ccc(C(C)(C)C)cc2)c1=O` [Compound 13] cannot be ordered by Ki: over 100 nM for the first, over 100 nM for the second.

`Cn1c(=O)[nH]c(N2CCC(Cc3ccccc3)CC2)c(Cc2ccccc2-c2ccccc2)c1=O` [Compound 14] and `O=c1[nH]c(N2CCC(Cc3ccccc3)CC2)c(Cc2cccc(Cl)c2)c(=O)n1-c1ccccc1` [Compound 25] cannot be ordered by Ki: over 100 nM for the first, over 100 nM for the second.

`Cn1c(=O)[nH]c(N2CCN(Cc3ccccc3)CC2)c(Cc2ccccc2)c1=O` [Compound 16] and `O=c1[nH]c(N2CCN(Cc3ccccc3)CC2)c(Cc2ccccc2)c(=O)[nH]1` [Compound 22] cannot be ordered by Ki: over 100 nM for the first, over 100 nM for the second.

First: Cn1c(=O)[nH]c(N2CCC(c3ccccc3)CC2)c(Cc2ccccc2)c1=O [Compound 17]
Second: Cn1c(=O)[nH]c(N2CCC(c3ccccc3)CC2)c(CCc2ccccc2)c1=O [Compound 28]
The Ki of the first is lower: 10 to 100 nM for the first, over 100 nM for the second. The first binds more tightly here.

First: O=c1[nH]c(N2CCC(Cc3ccccc3)CC2)c(Cc2ccccc2)c(=O)[nH]1 [Compound 18]
Second: O=c1[nH]c(N2CCC(c3ccccc3)CC2)c(Cc2ccccc2)c(=O)[nH]1 [Compound 31]
The Ki of the first is higher: 10 to 100 nM for the first, under 10 nM for the second. The second binds more tightly here.

`Cn1c(=O)[nH]c(N2CCC(O)(Cc3ccccc3)CC2)c(Cc2ccccc2)c1=O` [Compound 19] and `Cn1c(=O)[nH]c(N2CCN(C(c3ccccc3)c3ccccc3)CC2)c(Cc2ccccc2)c1=O` [Compound 21] cannot be ordered by Ki: over 100 nM for the first, over 100 nM for the second.

First: O=c1[nH]c(N2CCC(Cc3ccccc3)CC2)c(Cc2cccc(Cl)c2)c(=O)n1Cc1ccccc1 [Compound 24]
Second: O=c1[nH]c(N2CCC(c3ccccc3)CC2)c(Cc2cccc(Cl)c2)c(=O)n1Cc1ccccc1 [Compound 27]
The Ki of the first is lower: 10 to 100 nM for the first, over 100 nM for the second.

`CC(C)Cn1c(=O)[nH]c(N2CCC(Cc3ccccc3)CC2)c(Cc2cccc(Cl)c2)c1=O` [Compound 26] and `CCn1c(=O)[nH]c(N2CCC(Cc3ccccc3)CC2)c(Cc2cccc(Cl)c2)c1=O` [Compound 29] cannot be ordered by Ki: over 100 nM for the first, over 100 nM for the second.

Compared with `CCn1c(=O)[nH]c(N2CCC(c3ccccc3)CC2)c(Cc2cccc(Cl)c2)c1=O` [Compound 30], `O=c1[nH]c(N2CCC(c3ccccc3)CC2)c(Cc2cccc(Cl)c2)c(=O)[nH]1` [Compound 35] is lower in Ki: over 100 nM for the first, under 10 nM for the second. The second binds more tightly here.

First: O=c1[nH]c(N2CCC(c3ccccc3)CC2)c(Cc2ccccc2Cl)c(=O)[nH]1 [Compound 33]
Second: Cn1c(=O)[nH]c(N2CCC(c3ccccc3)CC2)c(Cc2ccccc2Cl)c1=O [Compound 34]
The Ki of the first is lower: under 10 nM for the first, 10 to 100 nM for the second.

`O=c1[nH]c(N2CCC(c3ccccc3)CC2)c(Cc2ccc(Cl)cc2)c(=O)[nH]1` [Compound 36] and `O=c1[nH]c(N2CCC(c3ccccc3)CC2)c(Cc2cccc(Br)c2)c(=O)[nH]1` [Compound 38] fall in the same range of Ki: 10 to 100 nM for the first, 10 to 100 nM for the second.

First: COc1cccc(C2CCN(c3[nH]c(=O)[nH]c(=O)c3Cc3ccccc3)CC2)c1 [Compound 39]
Second: COc1ccc(C2CCN(c3[nH]c(=O)[nH]c(=O)c3Cc3ccccc3)CC2)cc1 [Compound 40]
The Ki of the first is lower: under 10 nM for the first, 10 to 100 nM for the second. The first binds more tightly here.

First: COc1ccccc1C1CCN(c2[nH]c(=O)[nH]c(=O)c2Cc2ccccc2)CC1 [Compound 41]
Second: O=c1[nH]c(N2CCC(c3c[nH]c4ccccc34)CC2)c(Cc2ccccc2)c(=O)[nH]1 [Compound 42]
The Ki of the first is lower: under 10 nM for the first, 10 to 100 nM for the second. The first binds more tightly here.

`CC(=O)Nc1ccc(C2CCN(c3[nH]c(=O)[nH]c(=O)c3Cc3ccccc3)CC2)cc1` [Compound 46] and `N#Cc1cccc(Cc2c(N3CCC(c4ccccc4)CC3)[nH]c(=O)[nH]c2=O)c1` [Compound 48] fall in the same range of Ki: 10 to 100 nM for the first, 10 to 100 nM for the second.
